For assay [1], the target named is T1, Dual specificity mitogen-activated protein kinase kinase 5 (Homo sapiens) (UniProt Q13163).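 Further: MEK5 activity stimulated by EGF, read out as phospho-ERK5 on Western blot after 1 h treatment, expressed relative to control.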
T1 sequence (whole entry): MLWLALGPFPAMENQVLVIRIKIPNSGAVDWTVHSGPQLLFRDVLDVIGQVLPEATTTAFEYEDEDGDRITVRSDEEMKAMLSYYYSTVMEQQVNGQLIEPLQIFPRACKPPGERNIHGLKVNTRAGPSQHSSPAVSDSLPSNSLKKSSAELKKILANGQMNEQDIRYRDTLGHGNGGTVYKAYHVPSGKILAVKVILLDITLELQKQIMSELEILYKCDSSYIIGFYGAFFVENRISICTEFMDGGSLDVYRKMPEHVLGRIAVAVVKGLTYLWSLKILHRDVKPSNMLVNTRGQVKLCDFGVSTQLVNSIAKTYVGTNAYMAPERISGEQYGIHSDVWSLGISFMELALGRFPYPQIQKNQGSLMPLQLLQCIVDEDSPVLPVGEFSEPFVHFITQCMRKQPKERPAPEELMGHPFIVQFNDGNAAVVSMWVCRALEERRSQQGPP
As to conditions: HEK293, at 10 µM.
Description: Inhibition of EGF-induced MEK5 activity in HEK293 cells assessed as phosphorylated ERK5 level at 10 uM after 1 hr by Western blotting relative to control

Assay [2] concerns the target Dual specificity mitogen-activated protein kinase kinase; MEK1/2 (Homo sapiens) (UniProt P36507+Q02750). Particulars: HEK293, at 10 µM.
Description: Inhibition of EGF-induced MEK1/2 activity in HEK293 cells assessed as phosphorylated ERK1/2 level at 10 uM after 1 hr by Western blotting relative to control
The test system of a further assay is MDA-N. The assay is described as follows: Cytotoxicity against human MDA-N cells at 10 uM assessed as cell growth relative to control. In kind it is functional. As to conditions: read-out: Activity.
A further assay concerns CCRF-CEM. The assay is described as follows: Cytotoxicity against human CCRF-CEM cells at 10 uM assessed as cell growth relative to control. In kind it is functional. As to conditions: read-out: Activity.
In a further assay the test system is HL-60(TB). Description: Cytotoxicity against human HL-60(TB) cells at 10 uM assessed as cell growth relative to control. In kind it is functional. Particulars: read-out: Activity.
The test system of the next assay is K562. The assay is described as follows: Cytotoxicity against human K562 cells at 10 uM assessed as cell growth relative to control. In kind it is functional. As to conditions: read-out: Activity.
The next assay has as its system HOP-62. Description: Cytotoxicity against human HOP62 cells at 10 uM assessed as cell growth relative to control. It is filed as functional. Particulars: read-out: Activity.
A further assay deals with NCI-H23. The assay is described as follows: Cytotoxicity against human NCI-H23 cells at 10 uM assessed as cell growth relative to control. In kind it is functional. As to conditions: read-out: Activity.
A further assay has as its system NCI-H522. Description: Cytotoxicity against human NCI-H522 cells at 10 uM assessed as cell growth relative to control. It is filed as functional. Particulars: read-out: Activity.
In the next assay the test system is HCT-116. Description: Cytotoxicity against human HCT116 cells at 10 uM assessed as cell growth relative to control. In kind it is functional. As to conditions: read-out: Activity.
The next assay deals with SF-539. The assay is described as follows: Cytotoxicity against human SF539 cells at 10 uM assessed as cell growth relative to control. It is filed as functional. As to conditions: read-out: Activity.
Another assay has as its system SNB-19. Description: Cytotoxicity against human SNB19 cells at 10 uM assessed as cell growth relative to control. It is filed as functional. Particulars: read-out: Activity.
A further assay concerns SNB-75. Description: Cytotoxicity against human SNB75 cells at 10 uM assessed as cell growth relative to control. As to conditions: read-out: Activity. In kind it is functional.
The next assay concerns U-251. The assay is described as follows: Cytotoxicity against human U251 cells at 10 uM assessed as cell growth relative to control. Particulars: read-out: Activity. In kind it is functional.
The test system of another assay is M14. Description: Cytotoxicity against human M14 cells at 10 uM assessed as cell growth relative to control. It is filed as functional. Particulars: read-out: Activity.
The next assay deals with SK-MEL-5. Description: Cytotoxicity against human SK-MEL-5 cells at 10 uM assessed as cell growth relative to control. It is filed as functional. As to conditions: read-out: Activity.
The subject of a further assay is IGROV-1. Description: Cytotoxicity against human IGROV1 cells at 10 uM assessed as cell growth relative to control. As to conditions: read-out: Activity. It is filed as functional.
The subject of a further assay is OVCAR-5. The assay is described as follows: Cytotoxicity against human OVCAR5 cells at 10 uM assessed as cell growth relative to control. It is filed as functional. As to conditions: read-out: Activity.
In the next assay the test system is NCI/ADR-RES. Description: Cytotoxicity against human NCI/ADR-RES cells at 10 uM assessed as cell growth relative to control. It is filed as functional. Particulars: read-out: Activity.
Another assay has as its system SK-OV-3. The assay is described as follows: Cytotoxicity against human SKOV3 cells at 10 uM assessed as cell growth relative to control. It is filed as functional. Particulars: read-out: Activity.
The next assay concerns A498. The assay is described as follows: Cytotoxicity against human A498 cells at 10 uM assessed as cell growth relative to control. Particulars: read-out: Activity. It is filed as functional.
The next assay deals with RXF 393. Description: Cytotoxicity against human RXF393 cells at 10 uM assessed as cell growth relative to control. In kind it is functional. As to conditions: read-out: Activity.
A further assay deals with SN12C. The assay is described as follows: Cytotoxicity against human SN12C cells at 10 uM assessed as cell growth relative to control. In kind it is functional. As to conditions: read-out: Activity.
The subject of a further assay is PC-3. The assay is described as follows: Cytotoxicity against human PC3 cells at 10 uM assessed as cell growth relative to control. Particulars: read-out: Activity. In kind it is functional.
Another assay relates to DU-145. The assay is described as follows: Cytotoxicity against human DU145 cells at 10 uM assessed as cell growth relative to control. In kind it is functional. Particulars: read-out: Activity.
A further assay relates to MDA-MB-231. The assay is described as follows: Cytotoxicity against human MDA-MB-231 cells at 10 uM assessed as cell growth relative to control. It is filed as functional. As to conditions: read-out: Activity.
In the next assay the test system is BT-549. The assay is described as follows: Cytotoxicity against human BT549 cells at 10 uM assessed as cell growth relative to control. It is filed as functional. As to conditions: read-out: Activity.

Dual specificity mitogen-activated protein kinase kinase; MEK1/2 (Homo sapiens), sequence (P36507 whole entry, looked up): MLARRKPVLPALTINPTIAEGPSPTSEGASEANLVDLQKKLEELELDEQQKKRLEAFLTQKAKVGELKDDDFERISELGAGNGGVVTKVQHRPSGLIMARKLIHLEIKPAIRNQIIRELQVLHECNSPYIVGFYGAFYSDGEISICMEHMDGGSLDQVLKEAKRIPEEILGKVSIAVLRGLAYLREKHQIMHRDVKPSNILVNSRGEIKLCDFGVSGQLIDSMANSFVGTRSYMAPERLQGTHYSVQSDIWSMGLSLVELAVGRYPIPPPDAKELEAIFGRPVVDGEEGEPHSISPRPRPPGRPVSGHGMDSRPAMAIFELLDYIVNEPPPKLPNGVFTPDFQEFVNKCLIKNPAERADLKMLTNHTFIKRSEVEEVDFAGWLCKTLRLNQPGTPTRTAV
Dual specificity mitogen-activated protein kinase kinase; MEK1/2 (Homo sapiens), sequence (Q02750 whole entry, looked up): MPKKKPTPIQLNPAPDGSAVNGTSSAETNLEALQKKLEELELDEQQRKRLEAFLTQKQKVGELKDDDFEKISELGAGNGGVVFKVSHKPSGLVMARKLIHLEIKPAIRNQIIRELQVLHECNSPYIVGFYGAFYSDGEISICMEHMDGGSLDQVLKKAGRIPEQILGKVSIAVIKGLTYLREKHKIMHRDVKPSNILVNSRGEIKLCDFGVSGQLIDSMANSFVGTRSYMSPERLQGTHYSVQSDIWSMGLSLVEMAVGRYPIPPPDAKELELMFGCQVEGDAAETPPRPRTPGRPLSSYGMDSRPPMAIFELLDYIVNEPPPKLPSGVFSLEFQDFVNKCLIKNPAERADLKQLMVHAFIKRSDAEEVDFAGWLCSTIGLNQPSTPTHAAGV

As a reminder, the inhibition is the share of the control response that was lost under treatment. Read a low inhibition as a weak effect. Regarding `CCOc1cc(NCc2ccccc2)c2ncn(C(C)C)c2c1`, the inhibition in assay [1] is 63%.
In the case of `CC(C)Oc1cc(NCc2ccccc2)c2ncn(C(C)C)c2c1`, the values for the inhibition in [2] and in assay [1] were 0% and 22%, respectively.
Taken in the same sequence, the figures for `CCOCCOc1cc(NCc2ccccc2)c2ncn(C(C)C)c2c1` were 100% and 75%.
As to `CN1CCN(c2ccc3[nH]c(-c4ccc5[nH]c(-c6ccc(O)cc6)nc5c4)nc3c2)CC1` [HOECHST 33258], the growth at 10 µM is -5.06% with MDA-N; -4.89% with CCRF-CEM; -4.62% in the assay with HL-60(TB); -5.22% with K562; -4% in the assay with HOP-62; -4% with NCI-H23. The growth at 10 µM in the assay with NCI-H522 is -5.52%; in the assay on HCT-116 it was -4.52%; in the assay with SF-539, -4%; with SNB-19 it was -4%; in the assay with SNB-75 it was -4%; in the assay on U-251 it was -4%. In addition, the growth at 10 µM in the assay on M14 was -4%; in the assay with SK-MEL-5, -4.01%; in the assay on IGROV-1, -4%; in the assay on OVCAR-5, -4%; with NCI/ADR-RES, -4%; with SK-OV-3, -4%. Further, the growth at 10 µM with A498, with RXF 393, with SN12C, with PC-3, with DU-145 and with MDA-MB-231 was -4% throughout. Also, in the assay on BT-549, the growth at 10 µM was -4%. In addition, the inhibition in assay [2] turned out to be 22%; in [1], 30%.
The compound `CCCCOc1cc(NCc2ccccc2)c2ncn(C(C)C)c2c1` registered an inhibition in assay [1] of 5%.
For `CC(C)n1cnc2c(NCc3ccccc3)cc(OCCCN3CCOCC3)cc21`, the inhibition in [2] stood at 92%; in assay [1] it was 0%.
Compound `CCCOc1cc(NCc2ccccc2)c2ncn(C(C)C)c2c1` returned an inhibition in [1] of 24%.
For `COc1cc(N)c2c(c1)N(C(C)C)CN2`, the values for the inhibition in assay [2] and in assay [1] were 18% and 42%, respectively.
As for `N#CC(=C(/N)Sc1ccccc1N)/C(C#N)=C(\N)Sc1ccccc1N`, the inhibition in [1] is 27%.

The record behind these values is ChEMBL document CHEMBL1275384, “Structure-activity relationships of benzimidazole-based selective inhibitors of the mitogen activated kinase-5 signaling pathway” (2010).
